The text below walks through data of US9012431B2, “Boron-containing small molecules as anti-inflammatory agents” (Anacor Pharmaceuticals, Inc., priority 2008, dated 2015).

As usually defined, the IC50 is the concentration needed to halve the response being measured. The inhibition in vivo is the share of the control response that was lost under treatment. A higher inhibition in vivo goes with a response far below the control.

Counter-ions that a name gives are not always drawn.

The subject of assay [1] is IL-2. Nature of the assay: Cytokine assay, IL-2 release from PBMC. The format is cell-based. The settings on record: human PBMC, 20 ug/mL PHA, supernatant at 24 hours. A digest of the protocol: (§1)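 Using previously frozen human PBMC resuspended in medium of RPMI 1640 supplemented with 10% FBS, test article at 10, 1, 0.1 and 0.01 μM was evaluated in triplicate; DMSO stock was 10 mM.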

In assay [2] the test system is IL-10. Nature of the assay: Cytokine assay, IL-10 release from PBMC. The settings on record: human PBMC, 20 ug/mL PHA, supernatant at 48 hours. The format is cell-based. A digest of the protocol:
as §1

The subject of assay [3] is CD-1 (Crl.) derived male mice. Nature of the assay: Phorbol Ester Induced Mouse Ear Edema Model. The assay is classed as in vivo. Particulars: topical, 6 h; for inhibition in vivo at 3 mg: 3 mg/ear × 2 topical; for inhibition in vivo at 0.02 mg: 0.02 mg/ear × 2 topical; for inhibition in vivo at 0.06 mg: 0.06 mg/ear × 2 topical; for inhibition in vivo at 0.2 mg: 0.2 mg/ear × 2 topical. As to the method:
1. In Vivo Anti-Inflammation Activity in Phorbol Ester Induced Mouse Ear Edema Model
[…] Dexamethasone (1 mg/ear×2) used as the positive control was administered topically to test animals using the same application schedule. Ear swelling was then measured by a Dyer model micrometer gauge at 6 hours after PMA application as an index of inflammation. Percent inhibition was calculated according to the formula: [(Ic−It)/Ic]×100%, where Ic and It refer to increase of ear thickness (mm) in control and treated mice, respectively.

Assay [4] concerns IL-5. Nature of the assay: Cytokine assay, IL-5 release from PBMC. The format is cell-based. Particulars: human PBMC, 20 ug/mL PHA, supernatant at 48 hours. A digest of the protocol:
as §1

The subject of assay [5] is T1, PDE4 partially purified from human U-937 myeloid leukemia cells.
T1 construct: PDE4 partially purified from human U-937 myeloid leukemia cells was used
Nature of the assay: PDE4 Assay (enzyme from U-937 cells, [3H]cAMP). The format is biochemical. The settings on record: PDE4 from U-937 cells, Tris buffer pH 7.5, 20 minutes at 25° C.

The test system of assay [6] is IFN-γ. Nature of the assay: Cytokine assay, IFN-γ release from PBMC. The assay is classed as cell-based. The settings on record: human PBMC, 20 ug/mL PHA, supernatant at 24 hours. A digest of the protocol:
as §1

Assay [7] has as its system TNF-α. Nature of the assay: Cytokine assay, TNF-α release from PBMC. The format is cell-based. Particulars: Homo sapiens, PBMC, 24 h, 1 μg/mL LPS, supernatant at 24 hours. The procedure, abridged: as §1
The mark [8] stands for this setting: 1 mg/ear × 2 topical, Acetone:Ethanol/1:1, ear swelling 6 hours after PMA.
Setting [9] is: 1 mg/ear topical, Acetone:Ethanol/1:1, ear swelling 6 hours after PMA.
[10] abbreviates: 95% Ethanol, ear swelling 6 hours after PMA.

As for `N#Cc1ccc(Oc2ccc3c(c2)COB3O)c(O)c1` [D14, 5-(4-Cyano-2-hydroxyphenoxy)-1,3-dihydro-1-hydroxy-2,1-benzoxaborole], the IC50 in assay [1] was less than 1000 nM; in assay [2] it was 1000 to 4000 nM; in assay [4], less than 1000 nM; in assay [5], less than 1000 nM; in assay [6] it was less than 1000 nM; in assay [7], less than 1000 nM. In assay [3] (0.05 mg/ear × 2 topical, 95% Ethanol, ear swelling 6 hours after PMA), the inhibition in vivo at 0.05 mg was less than 30%. The inhibition in vivo at 0.17 mg in assay [3] (0.17 mg/ear × 2 topical, 95% Ethanol, ear swelling 6 hours after PMA) was less than 30%. Besides, the inhibition in vivo at 0.51 mg in assay [3] (0.51 mg/ear × 2 topical, 95% Ethanol, ear swelling 6 hours after PMA) is less than 30%. For the same molecule, the inhibition in vivo at 1 mg in assay [3] (1 mg/ear × 2 topical, 95% Ethanol, ear swelling 6 hours after PMA) was less than 30%; in assay [3] (setting [8]), less than 30%.

On to `CN1CCN(C(=O)COc2cc(C#N)ccc2Oc2ccc3c(c2)COB3O)CC1` [D29, 4-(2-(5-cyano-2-(1-hydroxy-1,3-dihydrobenzo[c][1,2]oxaborol-5-yloxy)phenoxy)acetyl)-1-methylpiperazine hydrochloride], for which the IC50 in assay [1] is less than 1000 nM; in assay [2] it was greater than 10000 nM; in assay [4], less than 1000 nM; in assay [5], less than 1000 nM; in assay [6], less than 1000 nM; in assay [7], less than 1000 nM. This molecule came in with an inhibition in vivo at 1 mg in assay [3] (setting [8]) of less than 30%.

As to `N#Cc1ccc(Oc2ccc3c(c2)COB3O)c(CN2CCOCC2)c1` [D32, 4-(5-cyano-2-1-hydroxy-1,3-dihydrobenzo[c][1,2]oxaborol-5-yloxy)benzyl)morpholine hydrochloride], the IC50 in assay [1], in assay [2], in assay [4], in assay [5], in assay [6] and in assay [7] was less than 1000 nM throughout. Moreover, the inhibition in vivo at 1 mg in assay [3] (setting [9]) and in assay [3] (setting [8]) was less than 30% in each case.

As to `CN1CCN(Cc2cc(C#N)ccc2Oc2ccc3c(c2)COB3O)CC1` [D33, 1-(5-cyano-2-(1-hydroxy-1,3-dihydrobenzo[c][1,2]oxaborol-5-yloxy)benzyl)-4-methylpiperazine-1,4-diium], the IC50 in assay [1], in assay [2], in assay [4], in assay [5], in assay [6] and in assay [7] was less than 1000 nM throughout. In assay [3] (setting [9]), this molecule showed an inhibition in vivo at 1 mg of less than 30%.

With `CN(C)Cc1cc(C#N)ccc1Oc1ccc2c(c1)COB2O` [D34, 1-(5-cyano-2-(1-hydroxy-1,3-dihydrobenzo[c][1,2]oxaborol-5-yloxy)phenyl)-N,N-dimethylmethanaminium], the IC50 in assay [1] was less than 1000 nM; in assay [2], 1000 to 4000 nM; in assay [4], 1000 to 4000 nM; in assay [5] it was 1000 to 4000 nM; in assay [6], less than 1000 nM; in assay [7], 1000 to 4000 nM. This molecule registered an inhibition in vivo at 1 mg in assay [3] (setting [9]) of less than 30%.

For `COC(=O)c1ccc(Oc2ccc3c(c2)COB3O)c(F)c1` [D50, 5-(2-Fluoro-4-methoxycarbonylphenoxy)-1-hydroxy-2,1-benzoxaborole], the IC50 in assay [1] was less than 1000 nM; in assay [2] it was 4000 to 10000 nM; in assay [4], 1000 to 4000 nM; in assay [5] it was less than 1000 nM; in assay [6] it was less than 1000 nM; in assay [7] it was less than 1000 nM. The molecule also had an inhibition in vivo at 1 mg in assay [3] (setting [8]) of 60 to 90%.

Consider `CCNC(=O)c1ccc(Oc2ccc3c(c2)COB3O)nc1` [D63, N-Ethyl-6-(1-hydroxy-1,3-dihydrobenzo[c][1,2]oxaborol-5-yloxy) nicotinamide], for which the IC50 in assay [1] was less than 1000 nM; in assay [2], 1000 to 4000 nM; in assay [4], 1000 to 4000 nM; in assay [5], less than 1000 nM; in assay [6], 1000 to 4000 nM; in assay [7], less than 1000 nM. Moreover, the inhibition in vivo at 1 mg in assay [3] (setting [8]) was less than 30%.

With `COC(=O)c1ccc(Oc2ccc3c(c2)COB3O)nc1` [D65, Methyl 6-(1-hydroxy-1,3-dihydrobenzo[c][1,2]oxaborol-5-yloxy)nicotinate], the IC50 in assay [1], in assay [2], in assay [4], in assay [5], in assay [6] and in assay [7] was less than 1000 nM each time. The molecule also had an inhibition in vivo at 1 mg in assay [3] (setting [8]) of 30 to 60%.

Take `CCCOC(=O)c1ccc(Oc2ccc3c(c2)COB3O)cc1` [D73, 4-(1-Hydroxy-1,3-dihydro-benzo[c][1,2]oxaborol-5-yloxy)-benzoic acid propyl ester]: the IC50 in assay [1] was 1000 to 4000 nM; in assay [2], greater than 10000 nM; in assay [4], 1000 to 4000 nM; in assay [5], less than 1000 nM; in assay [6], 4000 to 10000 nM; in assay [7], 1000 to 4000 nM. In addition, the inhibition in vivo at 1 mg in assay [3] (1 mg/ear × 2 topical, vehicle not given, ear swelling 6 hours after PMA) fell in the range of 30 to 60%. The molecule also gave an inhibition in vivo at 3 mg in assay [3] (vehicle not given, ear swelling 6 hours after PMA) of 60 to 90%.

In the case of `COCCOc1nc(Oc2ccc3c(c2)COB3O)ccc1C#N` [D86], the IC50 in assay [1], in assay [2], in assay [4], in assay [5], in assay [6] and in assay [7] was less than 1000 nM each time. Further, the inhibition in vivo at 0.063 mg in assay [3] (0.063 mg/ear × 2 topical, 95% Ethanol, ear swelling 6 hours after PMA) is less than 30%. Also, the inhibition in vivo at 0.21 mg in assay [3] (0.21 mg/ear × 2 topical, 95% Ethanol, ear swelling 6 hours after PMA) was less than 30%. The molecule also showed an inhibition in vivo at 0.63 mg in assay [3] (0.63 mg/ear × 2 topical, 95% Ethanol, ear swelling 6 hours after PMA) of less than 30%. Besides, the inhibition in vivo at 3 mg in assay [3] (setting [10]) is less than 30%.

Turning to `CN(C)c1nc(Oc2ccc3c(c2)COB3O)ccc1C#N` [D95, 2-Dimethylamino-6-(1-hydroxy-1,3-dihydro-benzo[c][1,2]oxaborol-5-yloxy)-nicotinonitrile], the IC50 was less than 1000 nM in assay [1]; 1000 to 4000 nM in assay [2]; less than 1000 nM in assay [4]; less than 1000 nM in assay [5]; less than 1000 nM in assay [6]; less than 1000 nM in assay [7]. Also, the inhibition in vivo at 0.02 mg in assay [3] (setting [10]) was less than 30%. The inhibition in vivo at 0.06 mg in assay [3] (setting [10]) was less than 30%. Moreover, in assay [3] (setting [10]), the inhibition in vivo at 0.2 mg is less than 30%.

On to `CN(CCO)c1ccc(C#N)c(Oc2ccc3c(c2)COB3O)n1` [D98, 2-(1-hydroxy-1,3-dihydro-benzo[c][1,2]oxaborol-5-yloxy)-6-[(2-hydroxy-ethyl)-methyl-amino]-nicotinonitrile], for which the IC50 in assay [1], in assay [2], in assay [4], in assay [5], in assay [6] and in assay [7] was less than 1000 nM in each case. This molecule also yielded an inhibition in vivo at 0.02 mg in assay [3] (setting [10]) of less than 30%. In addition, in assay [3] (setting [10]), the inhibition in vivo at 0.06 mg is less than 30%. The inhibition in vivo at 0.2 mg in assay [3] (setting [10]) lay within 30 to 60%.

Regarding `N#Cc1ccc(Oc2ccc3c(c2)COB3O)nc1OC1CCCC1` [D100, 2-Cyclopentyloxy-6-(1-hydroxy-1,3-dihydro-benzo[c][1,2]oxaborol-5-yloxy)-nicotinonitrile], the IC50 in assay [1], in assay [2], in assay [4], in assay [5], in assay [6] and in assay [7] was less than 1000 nM in each case. In assay [3] (0.028 mg/ear × 2 topical, 95% Ethanol, ear swelling 6 hours after PMA), this molecule registered an inhibition in vivo at 0.028 mg of less than 30%. For the same molecule, the inhibition in vivo at 0.28 mg in assay [3] (0.28 mg/ear × 2 topical, 95% Ethanol, ear swelling 6 hours after PMA) lay in the range of 30 to 60%.

In the case of `COCCNc1ccc(C#N)c(Oc2ccc3c(c2)COB3O)n1` [D101, 2-(1-Hydroxy-1,3-dihydro-benzo[c][1,2]oxaborol-5-yloxy)-6-(2-methoxy-ethylamino)-nicotinonitrile], the IC50 in assay [1] is less than 1000 nM; in assay [2] it was 1000 to 4000 nM; in assay [4] it was less than 1000 nM; in assay [5], less than 1000 nM; in assay [6], less than 1000 nM; in assay [7], less than 1000 nM. The inhibition in vivo at 0.8 mg in assay [3] (0.8 mg/ear × 2 topical, 95% Ethanol, ear swelling 6 hours after PMA) was less than 30%. The same molecule returned an inhibition in vivo at 2.4 mg in assay [3] (2.4 mg/ear × 2 topical, 95% Ethanol, ear swelling 6 hours after PMA) of less than 30%.

Regarding `COc1cc(Oc2ccc3c(c2)COB3O)ncc1C#N` [D109, 6-(1-Hydroxy-1,3-dihydro-benzo[c][1,2]oxaborol-5-yloxy)-4-methoxy-nicotinonitrile], the IC50 in assay [1], in assay [2], in assay [4], in assay [5], in assay [6] and in assay [7] was less than 1000 nM in each case. Moreover, in assay [3] (setting [10]), the inhibition in vivo at 0.02 mg was less than 30%. In assay [3] (0.067 mg/ear × 2 topical, 95% Ethanol, ear swelling 6 hours after PMA), the inhibition in vivo at 0.067 mg is less than 30%. Besides, in assay [3] (setting [10]), the inhibition in vivo at 0.2 mg is less than 30%.
